Assay results reported in the supplement of paper PMC10949913.
Values joined by “and” are separate entries in the source; they are usually repeats but may differ in a detail not shown here. Identical values can stand only once.

Columns and labels:
Test in all cases: area under concentration-response curve (viability) (AUC (a.u.)); higher = less active
Conditions in all cases: 48 h
[1] = test system: CU-ACC1
Procedure, shortened: (§1)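 Three adrenocortical carcinoma cell lines were exposed for 48 h to library compounds at 11 concentrations in 1,536-well plates, then read by CellTiter-Glo luminescence. Signals were scaled per plate against vehicle and empty-well controls. From fitted concentration-response curves of inhibitory or non-responding classes alone, AC50 and area under the curve were obtained.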

[2] = test system: CU-ACC2
Procedure, shortened: as §1

[3] = test system: NCI-H295R
Procedure, shortened: as §1

| SMILES | area under concentration-response curve [1] | area under concentration-response curve [2] | area under concentration-response curve [3] |
| --- | --- | --- | --- |
| CN1\C(=C(\O)C2=C(C=CC=C2)[S+]1([O-])=O)C(=O)NC3=CC=CC=N3 | 432 | 495 | 464 |
| Cc1cc(SCc2sc(-c3ccc(C(F)(F)F)c(F)c3)nc2C)ccc1OCC(=O)O | 539 | 493 | 565 |
| N=C(N)NC(=N)NCCc1ccccc1 | 525 | 626 | 573 |
| C[C@@H](C1CC[C@@]2(O)C3=CC(=O)[C@@H]4C[C@@H](O)[C@@H](O)C[C@]4(C)[C@H]3CC[C@]12C)[C@H](O)CCC(C)(C)O (some centres undefined) | 411 | 488 | 424 |
| C=CC(=O)N[C@H]1CCOC[C@H]1Nc1ncc2cc(-c3c(Cl)c(OC)cc(OC)c3Cl)ccc2n1 | 458 | 554 | 453 |
| CC/1=C/N([C@@H]2C[C@@H](O)[C@H](CO)O2)C(=O)NC1=O | 410 | 425 | 404 |
| COc1ccc2cc(OCC3(C(=O)O)CN(C(=O)c4ccc(F)cc4)C3)ccc2c1 | 556 | 606 | 552 |
| O=[N+]([O-])c1cn2c(n1)OC[C@@H](OCc1ccc(OC(F)(F)F)cc1)C2 | 528 | 574 | 523 |
| Oc1cc(O)cc(/C=C/c2ccc(O)c(O)c2)c1 | 519 | 511 | 525 |
| O=C(Nc1c(Cl)cncc1Cl)c1ccc(OC(F)F)c(OCC2CC2)c1 | 464 | 556 | 523 |
| CCN[C@H]1C[C@H](C)[S+](=O)([O-])c2sc([S+](N)(=O)[O-])cc21 | 514 | 612 | 558 |
| C#C[C@]1(O)CC[C@H]2[C@@H]3CCc4cc(O)ccc4[C@H]3CC[C@@]21C | 525 | 611 | 538 |
| CC(N)C12CC3CC(CC(C3)C1)C2 (centres undefined) | 507 | 523 | 494 |
| CCOC(=O)Nc1ccc(NCc2ccc(F)cc2)nc1N | 446 | 439 | 504 |
| C[C@@H](c1ccc2nccn2c1)n1nnc2ncc(-c3cnn(C)c3)nc21 | 481 | 582 | 512 |
| N#Cc1ccc(C2CCCc3cncn32)cc1 (centres undefined) | 503 | 544 | 479 |
| CCN(CC)CCN1C(=O)\C(=N/C2=CC=CC=C12)CC3=CC=C(OC)C=C3 | 472 | 526 | 501 |
| O=C(O)c1ccccc1-c1ccc(/C=c2\sc3nc4cc(Br)cnc4n3c2=O)o1 | 491 | 457 | 549 |
| CC(C)[C@H](O)C(=O)N[C@@H](C)C(=O)N[C@@H]1C(=O)N(C)CCc2ccccc21 | 522 | 577 | 575 |
| O=C(O)CSCC(=O)NC1CCSC1=O (centres undefined) | 379 | 415 | 405 |
| CC/1=C(/C(CC(=O)N1)C2=CC=C(C=C2)C(F)(F)F)C(=O)NC3=C(F)C=C4[NH]N=CC4=C3 (centres undefined) | 477 | 560 | 557 |
| COC(=O)[C@@H](N)CCCNC(=N)N[N+](=O)[O-] | 520 | 610 | 557 |
| Cn1c(/C=C/CO)c(CO)c2c1C(=O)C=C(N1CC1)C2=O | 461 | 580 | 514 |
| CCCCCCCCCCCC(CC1OC(=O)C1CCCCCC)OC(=O)C(CC(C)C)NC=O (centres undefined) | 474 | 517 | 336 |

| SMILES | area under concentration-response curve [1] | area under concentration-response curve [2] | area under concentration-response curve [3] |
| --- | --- | --- | --- |
| C[S+]([O-])(=O)C1=CC=C(C=C1)C/2=C(/C(=O)OC2)C3=CC=CC=C3 | 407 | 467 | 424 |
| N#Cc1c(N(CC(=O)[O-])CC(=O)[O-])sc(C(=O)[O-])c1CC(=O)[O-] | 478 | 544 | 497 |
| CC(C)C/1=C(NC2=C(C=N[N]2C1=O)C#N)\C3=CC=CC=C3 | 497 | 580 | 480 |
| Nc1ccc([S+](N)(=O)[O-])cc1 | 417 | 415 | 409 |
| CCOC(=O)[C@H](CCc1ccccc1)N[C@H]1CCc2ccccc2N(CC(=O)O)C1=O | 492 | 592 | 520 |
| O=C(Oc1ccc([N+](=O)[O-])cc1)N1CCC(C(O)(c2ccc3c(c2)OCO3)c2ccc3c(c2)OCO3)CC1 | 495 | 575 | 535 |
| CCOc1cc(/C=C2/C(=O)N(c3ccccc3)N=C2C)cc(Cl)c1OCC(=O)OC | 587 | 664 | 590 |
| C[C@H](NC(=O)Cc1cc(F)cc(F)c1)C(=O)N[C@H](C(=O)OC(C)(C)C)c1ccccc1 | 570 | 677 | 572 |
| CN\1N(C(=O)\C(=C1C)C(=O)NC2=CC=C(OC3=CC=NC4=C3C(=C[NH]4)C5=CC=CC=C5)C(=C2)F)C6=CC=C(F)C=C6 | 522 | 525 | 535 |
| COCC1(CO)C(=O)C2CCN1CC2 (centres undefined) | 443 | 513 | 468 |
| CCCc1c(OCCCOc2ccc(OCC(=O)O)cc2)ccc(C(C)=O)c1O | 518 | 607 | 548 |
| O=c1sn(-c2cccc3ccccc23)c(=O)n1Cc1ccccc1 | 462 | 501 | 433 |
| CCC/1=C(/NC2=C(C=N[N]2C1=O)C#N)C3=CC=CC=C3C | 550 and 493 | 577 and 487 | 552 and 522 |
| CO[C@@H]1[C@@H](OC(N)=O)[C@@H](O)[C@H](OC2=CC=C3\C(=C(NC(=O)C4=CC=C([O-])C(=C4)CC=C(C)C)/C(=O)OC3=C2C)O)OC1(C)C | 535 | 531 | 539 |
| CC1(C)Cc2c(-c3ccccc3)c(-c3ccc(Cl)cc3)c(CC(=O)O)n2C1 | 475 | 559 | 516 |
| O=C1NC(O)CCN1[C@@H]1O[C@H](CO)[C@@H](O)[C@H]1O (some centres undefined) | 539 | 646 | 585 |
| O=C1O[C@]2(CC[C@@H](C(=O)Nc3ccn(-c4ccccc4F)n3)CC2)c2cnccc21 | 492 | 602 | 494 |
| CCCCN(CCCC)CC(O)c1cc(Cl)cc2c1-c1ccc(Cl)cc1/C2=C/c1ccc(Cl)cc1 (centres undefined) | 546 | 631 | 582 |
| CNC1CCCN(C1)C2=C(F)C=C3C(=O)\C(=C/N(C4CC4)C3=C2OC)C(O)=O (centres undefined) | 530 | 655 | 564 |
| Cc1n[nH]c(C)c1Cc1sc2c(c1C(=O)N1C[C@H](O)CO1)c(=O)n(C)c(=O)n2CC(C)C | 379 | 597 | 554 |
| CCNC(=O)Nc1ccc(Oc2ncnc(N)c2/C=N/OC)cc1Cl | 509 | 645 | 567 |
| CN1CCN(c2ccc(OC(F)(F)F)c(Nc3ncc4c(n3)-c3c(c(C(N)=O)nn3CCO)CC4)c2)CC1 | 498 | 587 | 460 |
| CC(C)NC(=O)N1CC[C@@H](C1)NC/2=N/C3=C(C=CC(=C3)F)N(CC(F)F)C4=C2C=C(Cl)C=C4 | 580 | 656 | 580 |
| CC(NC1=CC=CC=C1)C\2=C\C(=C/N3C(=O)\C=C(/N=C23)N4CCOCC4)C (centres undefined) | 414 | 647 | 583 |
